Assay results published in ChEMBL document CHEMBL1133063, “Nonbenzamidine compounds as selective factor Xa inhibitors” (Bioorg Med Chem Lett, 2000).

Columns and labels:
[1] = biological target: Coagulation factor X (Homo sapiens, UniProt P00742); assay: Compound was evaluated for the inhibitory activity against Coagulation factor X
[2] = biological target: Vitamin K-dependent protein C (Homo sapiens, UniProt P04070); assay: Compound was evaluated for the inhibitory activity against Activated protein C
Chain of Vitamin K-dependent protein C (P04070 43-197 limits assumed): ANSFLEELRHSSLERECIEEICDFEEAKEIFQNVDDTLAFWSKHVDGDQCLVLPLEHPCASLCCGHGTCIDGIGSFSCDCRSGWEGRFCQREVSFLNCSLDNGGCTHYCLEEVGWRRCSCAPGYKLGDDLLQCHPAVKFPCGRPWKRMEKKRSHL
Chain of Vitamin K-dependent protein C (P04070 212-461 limits assumed): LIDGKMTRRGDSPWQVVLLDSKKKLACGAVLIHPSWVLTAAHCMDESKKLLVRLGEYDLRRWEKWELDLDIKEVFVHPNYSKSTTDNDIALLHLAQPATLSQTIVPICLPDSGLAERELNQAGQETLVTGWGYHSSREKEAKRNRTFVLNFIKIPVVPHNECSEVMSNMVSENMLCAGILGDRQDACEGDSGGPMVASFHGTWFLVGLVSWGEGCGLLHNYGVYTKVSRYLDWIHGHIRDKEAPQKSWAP

[3] = biological target: Plasminogen (Homo sapiens, UniProt P00747); assay: Compound was evaluated for the inhibitory activity against plasmin
Chain of Plasminogen (P00747 97-580 limits assumed): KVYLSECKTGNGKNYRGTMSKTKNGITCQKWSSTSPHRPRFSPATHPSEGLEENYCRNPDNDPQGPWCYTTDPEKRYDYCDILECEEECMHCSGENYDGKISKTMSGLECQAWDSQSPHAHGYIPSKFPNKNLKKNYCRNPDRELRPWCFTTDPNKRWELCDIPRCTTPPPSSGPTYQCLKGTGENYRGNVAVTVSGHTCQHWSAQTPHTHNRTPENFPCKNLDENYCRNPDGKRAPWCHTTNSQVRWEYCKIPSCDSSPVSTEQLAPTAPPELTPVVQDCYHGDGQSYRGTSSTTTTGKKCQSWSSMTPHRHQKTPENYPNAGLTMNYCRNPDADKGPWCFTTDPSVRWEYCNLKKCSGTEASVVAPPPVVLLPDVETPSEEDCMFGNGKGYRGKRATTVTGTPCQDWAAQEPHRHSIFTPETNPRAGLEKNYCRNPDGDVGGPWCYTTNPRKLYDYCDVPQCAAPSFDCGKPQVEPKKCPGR
Chain of Plasminogen (P00747 581-810 limits assumed): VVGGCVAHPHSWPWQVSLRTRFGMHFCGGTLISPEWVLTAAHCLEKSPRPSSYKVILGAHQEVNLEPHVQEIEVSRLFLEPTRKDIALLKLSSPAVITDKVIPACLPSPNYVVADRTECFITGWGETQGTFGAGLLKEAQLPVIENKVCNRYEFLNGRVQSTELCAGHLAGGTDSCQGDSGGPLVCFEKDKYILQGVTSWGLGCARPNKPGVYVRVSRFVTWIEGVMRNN

[4] = biological target: Prothrombin (Homo sapiens, UniProt P00734); assay: Compound was evaluated for the inhibitory activity against thrombin
[5] = biological target: T1, Serine protease 1 (Homo sapiens, UniProt P07477); assay: Compound was evaluated for the inhibitory activity against trypsin.
T1 sequence (P07477 whole entry): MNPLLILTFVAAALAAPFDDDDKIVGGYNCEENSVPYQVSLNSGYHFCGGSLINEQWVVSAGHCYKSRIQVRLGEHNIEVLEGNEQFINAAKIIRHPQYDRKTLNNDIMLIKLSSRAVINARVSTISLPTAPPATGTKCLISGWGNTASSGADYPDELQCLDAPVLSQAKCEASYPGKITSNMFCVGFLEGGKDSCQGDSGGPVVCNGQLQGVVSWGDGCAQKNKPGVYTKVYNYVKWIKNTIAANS

[6] = biological target: T2, Tissue-type plasminogen activator (Homo sapiens, UniProt P00750); assay: Compound was evaluated for the inhibitory activity against t-PA.
T2 sequence (P00750 whole entry): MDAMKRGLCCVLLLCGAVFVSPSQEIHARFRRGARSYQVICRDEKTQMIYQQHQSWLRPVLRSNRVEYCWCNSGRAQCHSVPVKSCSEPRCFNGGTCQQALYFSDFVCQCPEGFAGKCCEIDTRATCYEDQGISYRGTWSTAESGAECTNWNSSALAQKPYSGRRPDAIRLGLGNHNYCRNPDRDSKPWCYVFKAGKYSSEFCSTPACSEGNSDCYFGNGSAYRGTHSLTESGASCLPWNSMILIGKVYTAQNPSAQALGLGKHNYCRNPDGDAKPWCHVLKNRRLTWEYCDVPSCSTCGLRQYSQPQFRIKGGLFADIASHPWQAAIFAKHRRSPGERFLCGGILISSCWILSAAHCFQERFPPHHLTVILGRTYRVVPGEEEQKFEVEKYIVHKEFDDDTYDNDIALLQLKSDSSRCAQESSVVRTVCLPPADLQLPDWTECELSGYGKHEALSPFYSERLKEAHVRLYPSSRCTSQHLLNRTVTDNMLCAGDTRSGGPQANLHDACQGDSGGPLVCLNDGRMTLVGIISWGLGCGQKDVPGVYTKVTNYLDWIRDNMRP

[7] = biological target: T1, Serine protease 1; assay: Compound was evaluated for the inhibitory activity against trypsin
[8] = biological target: T2, Tissue-type plasminogen activator; assay: Compound was evaluated for the inhibitory activity against t-PA

Chain of Coagulation factor X (P00742 41-179 limits assumed): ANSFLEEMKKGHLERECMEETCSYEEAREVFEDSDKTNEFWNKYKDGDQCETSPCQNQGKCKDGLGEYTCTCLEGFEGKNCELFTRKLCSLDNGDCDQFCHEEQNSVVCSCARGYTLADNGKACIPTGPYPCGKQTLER
Chain of Coagulation factor X (P00742 235-488 limits assumed): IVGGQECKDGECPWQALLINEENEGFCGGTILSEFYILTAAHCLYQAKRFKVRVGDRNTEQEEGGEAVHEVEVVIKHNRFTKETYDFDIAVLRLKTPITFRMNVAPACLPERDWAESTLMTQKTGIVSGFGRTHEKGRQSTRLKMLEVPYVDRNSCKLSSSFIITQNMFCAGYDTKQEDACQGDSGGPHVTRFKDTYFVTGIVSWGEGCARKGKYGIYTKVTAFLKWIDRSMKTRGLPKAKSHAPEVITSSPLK

| SMILES | Ki [1] [nM] | other results |
| --- | --- | --- |
| O=C(CN1CCN(S(=O)(=O)c2cc3ccc(Cl)cc3s2)CC1=O)Nc1cccnc1 | > 1200 |  |
| O=C(CN1CCN(S(=O)(=O)c2cc3ccc(Cl)cc3s2)CC1=O)NCCCn1ccnc1 | > 1200 |  |
| Cn1cccc1CCNC(=O)CN1CCN(S(=O)(=O)c2cc3ccc(Cl)cc3s2)CC1=O | > 1200 |  |
| O=C(CN1CCN(S(=O)(=O)c2cc3ccc(Cl)cc3s2)CC1=O)Nc1ccncn1 | 97 |  |
| O=C(CN1CCN(S(=O)(=O)c2cc3ccc(Cl)cc3s2)CC1=O)NCCc1ccccn1 | 140 |  |
| O=C(CN1CCN(S(=O)(=O)c2cc3ccc(Cl)cc3s2)CC1=O)NCCc1c[nH]c(S)n1 | 620 |  |
| Cn1cnc(CCNC(=O)CN2CCN(S(=O)(=O)c3cc4ccc(Cl)cc4s3)CC2=O)c1 | 430 |  |
| CN(C(=O)CN1CCN(S(=O)(=O)c2cc3ccc(Cl)cc3s2)CC1=O)c1ccncc1 | > 1200 |  |
| Nc1cc(CCNC(=O)CN2CCN(S(=O)(=O)c3cc4ccc(Cl)cc4s3)CC2=O)ccn1 | 140 |  |
| Cn1cncc1CCNC(=O)CN1CCN(S(=O)(=O)c2cc3ccc(Cl)cc3s2)CC1=O | 12 | Ki [2]: > 18000 nM; Ki [3]: > 7300 nM; Ki [4]: > 4000 nM; Ki [5]: > 2900 nM; Ki [6]: > 8700 nM |
| O=C(CN1CCN(S(=O)(=O)c2cc3ccc(Cl)cc3s2)CC1=O)Nc1ccccc1 | > 1200 |  |
| O=C(CN1CCN(S(=O)(=O)c2cc3ccc(Cl)cc3s2)CC1=O)Nc1ccncc1 | 170 |  |
| O=C(CN1CCN(S(=O)(=O)c2cc3ccc(Cl)cc3s2)CC1=O)NCCc1cccnc1 | 250 |  |
| O=C(CN1CCN(S(=O)(=O)c2cc3ccc(Cl)cc3s2)CC1=O)NCCn1ccnc1 | > 1200 |  |
| O=C(CN1CCN(S(=O)(=O)c2cc3ccc(Cl)cc3s2)CC1=O)NCc1cccnc1 | > 1200 |  |
| O=C(CN1CCN(S(=O)(=O)c2cc3ccc(Cl)cc3s2)CC1=O)NCCc1cscn1 | 160 |  |
| O=C(CN1CCN(S(=O)(=O)c2cc3ccc(Cl)cc3s2)CC1=O)NCCc1cnc[nH]1 | 21 | Ki [2]: > 18000 nM; Ki [3]: > 7300 nM; Ki [4]: > 4000 nM; Ki [7]: > 2900 nM; Ki [8]: > 8700 nM |
| COC(=O)[C@@H](Cc1cnc[nH]1)NC(=O)CN1CCN(S(=O)(=O)c2cc3ccc(Cl)cc3s2)CC1=O | > 1200 |  |
| Cc1ncsc1CCNC(=O)CN1CCN(S(=O)(=O)c2cc3ccc(Cl)cc3s2)CC1=O | 270 |  |
| O=C(CN1CCN(S(=O)(=O)c2cc3ccc(Cl)cc3s2)CC1=O)NCCc1ccncc1 | 59 |  |
| COC(=O)[C@H](Cc1c[nH]cn1)NC(=O)CN1CCN(S(=O)(=O)c2cc3ccc(Cl)cc3s2)CC1=O | > 1200 |  |
| Cc1[nH]cnc1CCNC(=O)CN1CCN(S(=O)(=O)c2cc3ccc(Cl)cc3s2)CC1=O | 340 |  |
| Nc1nc(CCNC(=O)CN2CCN(S(=O)(=O)c3cc4ccc(Cl)cc4s3)CC2=O)cs1 | 620 |  |
| O=C(CN1CCN(S(=O)(=O)c2cc3ccc(Cl)cc3s2)CC1=O)NC1CCNCC1 | > 1200 |  |
